Reference: patent publication US20260158149A1, “GLYCOSYLATED PRODRUGS” (UNIVERSITEIT LEIDEN, priority 2021, published 2026)

Legend:
[1] = test system: neutrophils migrated to the wounded area; experiment: Tail fin amputation assay: neutrophil migration to the wounded area; type: in vivo, Zebrafish (Danio rerio)
Description: Zebrafish (Danio rerio) were maintained and handled according to the guidelines from the Zebrafish Model Organism Database (https://zfin.org/) and in compliance with the directives of the local animal welfare committee of Leiden University. To maintain circadian rhythmicity, adult fish were exposed to a 14 h light and 10 h dark cycle. Fertilization was performed by natural spawning at the beginning of the light period. Fertilized eggs were collected and raised at 28° C. in egg water (60 μg/ml Instant Ocean sea salts and 0.0025% methylene blue). The following zebrafish lines were used in this study: AB/TL wild type, the transgenic lines Tg(mpx:GFP^i114/mpeg1:mCherry^umsF001) (Bernut et al., (2014). Mycobacterium abscessus cording prevents phagocytosis and promotes abscess formation. Proc Natl Acad Sci USA 111, E943-952; Renshaw et al., (2006). A transgenic zebrafish model of neutrophilic inflammation. Blood 108, 3976-3978), and Tg(9xGCRE-HSV.UI123:EGFP)^ia20 (Benato et al., (2014). A living biosensor model to dynamically trace glucocorticoid transcriptional activity during development and adult life in zebrafish. Mol Cell Endocrinol 392, 60-72), and the mutant lines gba2^−/− (Lelieveld et al., (2019). Role of beta-glucosidase 2 in aberrant glycosphingolipid metabolism: model of glucocerebrosidase deficiency in zebrafish. J Lipid Res 60, 1851-1867) and gr^s357 (Ziv et al., (2013). An affective disorder in zebrafish with mutation of the glucocorticoid receptor. Mol Psychiatry 18, 681-691).
(§1) For the tail fin amputation experiments, 3 days post fertilization (dpf) larvae from the Tg(mpx:GFP^i114/mpeg1:mCherry^umsF001) line were anesthetized in 0.02% buffered aminobenzoic acid ethyl ester (tricaine) in egg water and placed on a 2% agarose-coated petri dish. The tails were partially amputated with a 1 mm sapphire blade (World Precision Instruments) under a Leica M165C stereomicroscope (Leica Microsystems, Wetzlar, Germany). Chemical treatment (or 0.1% DMSO as vehicle treatment) was started at 2 h before the amputation (pretreatment) and was continued for 4 h after the tail fin amputation (20 larvae per group, unless indicated otherwise), at which time point the larvae were fixed in 4% paraformaldehyde (PFA) overnight at 4° C. and stored at 4° C. until further examination. In some experiments, a 24 h treatment with miglustat, ME656 or MZ31 was started at 2 dpf, and these treatments were continued during the pretreatment and treatment with the other chemicals. For imaging of larvae from the Tg(mpx:GFP^i114/mpeg1:mCherry^umsF001) line, a LeicaMZ16FA fluorescence stereomicroscope with LAS 3.7 software was used. Neutrophils were detected by GFP fluorescence and macrophages by mCherry fluorescence. The neutrophil numbers were determined by blinded manual counting in a pre-determined area. When larvae from gba2^−/− or gr^s357mutant lines were used, neutrophil labeling was performed with the TSA fluorescein detection kit (PerkinElmer) for specific staining of Myeloperoxidase (Mpx)-positive cells, following the manufacturer's instructions.

[2] = test system: il1b, il6, mmp9, mmp13, il8 mRNA; experiment: qPCR of pro-inflammatory genes after tail wounding; type: in vivo, Zebrafish (Danio rerio)
From the text: as §1
(§2) For experiments in zebrafish, gene expression was measured using 3 dpf embryos. Groups of 15 larvae were collected in TRIzol reagent (Invitrogen) and mRNA was isolated using the miRNeasy mini kit (Qiagen), according to the manufacturer's instructions. For experiments in HeLa cells, samples were collected from a single well from 6 well plates (80% confluent) in TRIzol reagent and mRNA was isolated using the RNeasy mini kit. Zebrafish and cells samples were treated with DNAse utilizing the DNA-Free™ kit (Ambion). The cDNA synthesis was performed using iScript cDNA synthesis kit (Bio-Rad) using 1 μg of RNA per sample. For qPCR, 10 μM of forward and 10 μM of reverse primer, 12.5 μL of iQ SYBR Green Supermix (Bio-Rad), and 2 μL of cDNA were added to the qPCR reaction mixture. […] The qPCR reactions were performed on a MyiQ-single-color real-time PCR detection system (Bio-Rad) with initial denaturation for 3 min at 95° C. and 40 cycles of 15 s at 95.5° C., 15 s at 60° C., and 30 s at 72° C. Cycle threshold values (Ct values, i.e. the cycle numbers at which a threshold value of the fluorescence intensity was reached) were determined for each sample. The gene expression level for each sample was normalized using the expression of ppial (peptidylprolyl isomerase Ab (cyclophilin A)) for zebrafish samples, and 18S rRNA for human cells. The fold change per sample (compared to the respective control group) was calculated using the ΔΔCt method.

Gr = experiment: Transactivation activity of Gr in Tg(9xGCRE-HSV.UI23:EGFP) reporter line; type: in vivo, Zebrafish (Danio rerio); settings: 24 h treatment, 3 dpf larvae
Description: The Tg(9xGCRE-HSV.UI23:EGFP)^ia20 zebrafish reporter line expresses enhanced green fluorescent protein (EGFP) under the control of a promoter containing an array of nine GREs. To study the effect of chemical treatments on the transactivation activity of the Gr, 15 zebrafish embryos per group (2 dpf) were treated with the indicated compounds for 24 hours. The transactivation activity of Gr induced by the treatments was assessed using a LeicaMZ16FA fluorescence stereomicroscope supported by LAS 3.7 software. The integrated intensity of the EGFP signal in the larvae was determined using ImageJ software.

[3] = test system: Gr target genes fkbp5, pck1 and nfkbiaa; experiment: qPCR of Gr target genes fkbp5, pck1, nfkbiaa; type: in vivo, Zebrafish (Danio rerio)
Description: as §2

[4] = zebrafish, in vivo
Description: Zebrafish embryos at 2 hpf received a chemical treatment, as indicated, with daily refreshment of the solutions, until 5 dpf. At 5 dpf, the larvae were collected in an Eppendorf tube and 100 μL of ice-cold glucose buffer was added to each sample. The larvae were homogenized using a BulletBlender® for 3 min at 8,000 rpm. The homogenates were then centrifuged at 4° C. for 8 min at 11000 rpm and the supernatant was stored at −20° C. Whole-body glucose concentrations were determined using a Glucose Colorimetric Assay kit (Cayman Chemical, USA), according to the manufacturer's instructions. In each experiment, three biological replicates were used for each treatment group, and the colorimetric assay was performed using technical duplicates.

[5] = zebrafish, in vivo; remark: listed apart in the source
Description: Zebrafish embryos at 2 hpf received a chemical treatment, as indicated, with daily refreshment of the solutions, until 96 hpf. Then, the treatments were stopped and embryos were incubated in egg water until 5 dpf to avoid cross-reactivity with the compounds of the cortisol antibody used in the ELISA. Then, the treatments were stopped and replaced with egg water. At 5 dpf, the larvae were collected in an Eppendorf tube and 100 μL of ice-cold phosphate-buffered saline (PBS) was added. The larvae were homogenized using a BulletBlender® for 3 min at 8,000 rpm. Ethyl acetate was added to the homogenate and the supernatant was gathered and vaporized. A volume of 150 μl of 0.2% Bovine serum albumin (Sigma Aldrich) dissolved in phosphate-buffered saline (PBS) was added to the samples and frozen. Whole-body cortisol of the zebrafish larvae was determined by ELISA (Demeditec Diagnostics GmbH, Kiel-Wellsee, Germany), following the manufacturer's instructions. In each experiment, three biological replicates were used for each treatment group, and the colorimetric assay was performed using technical duplicates.

human GR = target: T1, human GR (Homo sapiens, UniProt P04150); experiment: PolarScreen Glucocorticoid Receptor Competitor Assay; settings: glucosylation or gentiobiosylation of Pdn
T1 sequence (P04150 1-777): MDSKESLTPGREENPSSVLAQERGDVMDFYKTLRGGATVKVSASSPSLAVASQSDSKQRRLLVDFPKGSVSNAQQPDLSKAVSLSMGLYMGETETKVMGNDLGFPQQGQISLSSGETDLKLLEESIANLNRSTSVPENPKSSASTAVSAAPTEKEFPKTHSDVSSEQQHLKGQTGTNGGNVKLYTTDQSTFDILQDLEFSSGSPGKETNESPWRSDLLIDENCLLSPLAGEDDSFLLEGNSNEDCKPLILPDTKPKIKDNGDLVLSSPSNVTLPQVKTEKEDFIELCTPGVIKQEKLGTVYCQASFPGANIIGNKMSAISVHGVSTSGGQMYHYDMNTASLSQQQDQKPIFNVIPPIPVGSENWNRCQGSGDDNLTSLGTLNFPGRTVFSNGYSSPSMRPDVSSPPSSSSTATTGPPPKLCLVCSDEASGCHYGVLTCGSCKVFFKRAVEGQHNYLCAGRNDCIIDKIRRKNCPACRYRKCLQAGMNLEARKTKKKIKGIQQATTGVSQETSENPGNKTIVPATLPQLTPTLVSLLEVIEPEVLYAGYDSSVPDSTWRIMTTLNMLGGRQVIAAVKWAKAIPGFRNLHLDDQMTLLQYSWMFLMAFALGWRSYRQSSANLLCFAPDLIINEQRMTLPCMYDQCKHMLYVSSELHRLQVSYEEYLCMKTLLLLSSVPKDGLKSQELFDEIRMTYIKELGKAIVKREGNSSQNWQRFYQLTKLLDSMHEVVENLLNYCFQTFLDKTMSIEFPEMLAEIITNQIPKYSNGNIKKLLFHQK

whole body glucose level [4]: did not increase the glucose level
whole body glucose level under wounding conditions with MZ31 [4]: reduced upon treatment with MZ31
whole body cortisol level under wounding conditions with MZ31 [5]: reduced upon treatment with MZ31
decrease in the binding affinity relative to Pdn (human GR): ~30 fold
Compound: C[C@]12C=CC(=O)C=C1CC[C@@H]1[C@@H]2[C@@H](O)C[C@@]2(C)[C@H]1CC[C@]2(O)C(=O)CO[C@@H]1O[C@H](CO)[C@@H](O)[C@H](O)[C@H]1O [GPdn, 21-O-Glucose-Prednisolone]
reduction in neutrophil migration in the presence of MZ31 ([1]; GBA2 inhibitor MZ31): independent of GBA2 activity
migration of neutrophils towards the wounded area ([1]; wild type larvae, 4 h after tail wounding): inhibited the neutrophil migration
expression of the pro-inflammatory genes il1b, il6 and il8 [2]: these effects were similar to those observed upon Pdn and GPdn treatment
transactivation activity of Gr (GFP signal in GRE:GFP reporter fish line) (Gr): neither GPdn nor GbPdn induced the transactivation activity of the Gr
expression of Gr target genes fkbp5, pck1 and nfkbiaa [3]: lack of effect
whole body cortisol level [5]: only slightly reduced the cortisol concentrations
